The NIST ThermoML archive (doi:10.1016/j.jct.2014.09.005)

Experiments:
[1] = xn = mol fraction of the nth substance listed; conditions: 101 kPa, Liquid; for viscosity: Capillary tube (Ostwald / Ubbelohde) method; for mass density: Vibrating tube method
[2] = refractive index (Na D-line) (dimensionless); xn = mol fraction of the nth substance listed; conditions: 101 kPa, Liquid, Standard Abbe refractometry

NC1CCCCC1 [cyclohexylamine] + CCCCCCCO
Conditions | mass density, [1] [kg/m3] | refractive index, [2] | viscosity, [1] [mPa·s]
293.15 K, x2 = 0.1018 | 863.57 | – | 2.454
293.15 K, x2 = 0.1499 | 861.92 | 1.45459 | 2.635
293.15 K, x2 = 0.1996 | 860.22 | 1.45301 | 2.838
293.15 K, x2 = 0.2982 | 856.82 | 1.44986 | 3.308
293.15 K, x2 = 0.3979 | 853.09 | 1.44669 | 3.844
293.15 K, x2 = 0.4004 | – | 1.44661 | –
293.15 K, x2 = 0.4465 | 851.2 | 1.44519 | 4.118
293.15 K, x2 = 0.4931 | 849.3 | 1.44365 | 4.381
293.15 K, x2 = 0.5432 | 847.06 | 1.44192 | 4.66
293.15 K, x2 = 0.6008 | 844.43 | 1.43985 | 4.98
293.15 K, x2 = 0.6598 | 841.57 | 1.43777 | 5.267
293.15 K, x2 = 0.6969 | – | 1.4364 | –
293.15 K, x2 = 0.7019 | 839.35 | – | 5.475
293.15 K, x2 = 0.7479 | 836.94 | 1.43438 | 5.687
293.15 K, x2 = 0.7967 | 834.16 | 1.43236 | 5.916
293.15 K, x2 = 0.8466 | 831.39 | 1.4305 | 6.158
293.15 K, x2 = 0.8935 | 828.7 | 1.42866 | 6.421
293.15 K, x2 = 0.9432 | 825.75 | 1.42665 | 6.717
298.15 K, x2 = 0.1018 | 859.27 | 1.45356 | 2.178
298.15 K, x2 = 0.1499 | 857.64 | 1.45216 | 2.338
298.15 K, x2 = 0.1996 | 856.01 | 1.45053 | 2.502
298.15 K, x2 = 0.2982 | 852.71 | 1.44763 | 2.892
298.15 K, x2 = 0.3979 | 849.06 | – | 3.334
298.15 K, x2 = 0.4004 | – | 1.44444 | –
298.15 K, x2 = 0.4465 | – | 1.44298 | –
298.15 K, x2 = 0.4565 | 847.21 | – | 3.558
298.15 K, x2 = 0.4931 | 845.34 | 1.44143 | 3.776
298.15 K, x2 = 0.5432 | 843.14 | 1.43977 | 4.007
298.15 K, x2 = 0.5946 | – | 1.43797 | –
298.15 K, x2 = 0.6008 | 840.57 | – | 4.267
298.15 K, x2 = 0.6598 | 837.76 | 1.43561 | 4.478
298.15 K, x2 = 0.7019 | 835.59 | 1.43404 | 4.682
298.15 K, x2 = 0.7479 | 833.22 | 1.43244 | 4.828
298.15 K, x2 = 0.7967 | 830.49 | 1.43053 | 5.057
298.15 K, x2 = 0.8466 | 827.78 | 1.42852 | 5.232
298.15 K, x2 = 0.8935 | 825.11 | 1.42666 | 5.43
298.15 K, x2 = 0.9432 | 822.21 | 1.42476 | 5.673
303.15 K, x2 = 0.1018 | 854.9 | 1.45099 | 1.931
303.15 K, x2 = 0.1499 | 853.33 | 1.44958 | 2.059
303.15 K, x2 = 0.1996 | 851.74 | 1.44805 | 2.204
303.15 K, x2 = 0.2982 | 848.55 | 1.4452 | 2.531
303.15 K, x2 = 0.3979 | 845 | 1.44224 | 2.895
303.15 K, x2 = 0.4465 | 843.2 | 1.44068 | 3.079
303.15 K, x2 = 0.4931 | 841.35 | 1.43923 | 3.258
303.15 K, x2 = 0.5432 | 839.17 | 1.43752 | 3.443
303.15 K, x2 = 0.5946 | – | 1.43575 | –
303.15 K, x2 = 0.6008 | 836.68 | 1.43554 | 3.658
303.15 K, x2 = 0.6598 | 833.93 | 1.43355 | 3.694
303.15 K, x2 = 0.7019 | 831.8 | 1.432 | 4.005
303.15 K, x2 = 0.7479 | 829.48 | 1.43042 | 3.974
303.15 K, x2 = 0.7967 | 826.8 | 1.42836 | 4.317
303.15 K, x2 = 0.8466 | 824.12 | 1.42657 | 4.283
303.15 K, x2 = 0.8935 | 821.5 | 1.42455 | 4.444
303.15 K, x2 = 0.9432 | 818.64 | 1.42262 | 4.626
